Assay results taken from US20140377278A1, “Compositions and Methods for Assessing and Treating Inflammatory Diseases and Disorders” (Yale University, priority 2012, published 2014).

System: ASC^−/− mice
Test: DSS colitis in ASC-deficient mice after oral antimicrobial pretreatment
Assay type: in vivo
Conditions: oral antiviral, antifungal or antiparasitic treatment before DSS; weight loss compared (FIGS. 13C-13E)

| SMILES | severity of colitis in ASC-deficient mice |
| --- | --- |
| Nc1nc(O)c2ncn(COC(CO)CO)c2n1 [gancyclovir] | None of these treatments altered the severity of colitis |
| C[C@@H]1[C@H](O)[C@@H](C)/C=C/C=C/C=C/C=C/C=C/C=C/C=C/[C@H](O[C@@H]2O[C@H](C)[C@@H](O)[C@H](N)[C@@H]2O)C[C@@H]2O[C@](O)(C[C@@H](O)C[C@@H](O)[C@H](O)CC[C@@H](O)C[C@@H](O)CC(=O)O[C@H]1C)C[C@H](O)[C@H]2C(=O)O [amphotericin, amphotericin B] | None of these treatments altered the severity of colitis |
